From patent publication US4666897A, “Inhibition of mammalian collagenolytic enzymes by tetracyclines” (Research Foundation of State University, priority 1983, dated 1987)

How the values were obtained:
[1] = during a therapeutic regimen; cited from earlier work
[2] = system: fetal rat bones (radii and ulnae) in organ culture; experiment: PTH-induced bone resorption in organ culture (45calcium release); type: cell-based
Protocol: The technique used to assess bone resorption is based on monitoring the release of radioactive calcium, previously incorporated by embryonic bones in vivo, during organ culture. Pregnant Sprague-Dawley rats were injected subcutaneously with 200 μCi of ^45 calcium chloride on the 18th day of gestation. The following day, the animals were killed, the fetuses removed, and the radii and ulnae dissected under aseptic conditions. […] The bones were then randomly distributed and each bone, either a radius or ulna, was incubated in 0.5 ml of culture media alone or in a media containing parathyroid hormone (PTH: human synthetic 1-34 peptide, Beckman Instruments, Inc., Palo Alto, California) added in a final concentration of 1.0 μg/ml; the experimental bones were incubated in the PTH containing medium to which was added different concentrations (0.2-300 μg/ml) of the antibiotics to be tested. The bones were cultured for 5 days, with the media being changed after day 2, and the incubation terminated. The bones were decalcified in 0.2 ml of 5% trichloroacetic acid and the ^45 calcium content of the residual bones and of the culture media was measured as described previously. (Werner and Raisz, Endocrinology, 90, 752 (1972 ) and Gomes, et. al., Calc. Tiss. Res., 19, 285 (1976)). The ^45 calcium released into the media was calculated as a percentage of the total radioactive calcium measured in the bones.

[3] = Table 3, PTH + 2 μg/ml minocycline + 100 μg/ml Pen.-Strep.
[4] = Table 3, PTH + 2 μg/ml minocycline + 300 μg/ml Pen.-Strep.
[5] = Table 3, PTH + 20 μg/ml minocycline + 100 μg/ml Pen.-Strep.

Which results are given for CN(C)c1ccc(O)c2c1C[C@H]1C[C@H]3[C@H](N(C)C)C(O)=C(C(N)=O)C(=O)[C@@]3(O)C(O)=C1C2=O [minocycline, Minocycline]?
concentration in human serum [1]: approximately 2 ug/ml; concentration in the gingival crevicular fluid relative to serum [1]: 4-5 times greater; ^45 Calcium in Fetal Bone Released into Media (%) after 2 days incubation ([2]; Table 3, PTH + 0.2 μg/ml): 42.6 ± 0.6%; ^45 Calcium in fetal bone Released into media (%) after 5 days incubation ([2]; Table 3, PTH + 0.2 μg/ml): 75.6 ± 1.0%; ^45 Calcium in Fetal Bone Released into Media (%) after 2 days incubation ([2]; Table 3, PTH + 2 μg/ml): 44.2 ± 2.1%; ^45 Calcium in fetal bone Released into media (%) after 5 days incubation ([2]; Table 3, PTH + 2 μg/ml): 74.7 ± 3.1%; ^45 Calcium in Fetal Bone Released into Media (%) after 2 days incubation [2, 3]: 42.9 ± 1.9%; ^45 Calcium in fetal bone Released into media (%) after 5 days incubation [2, 3]: 70.2 ± 3.7%; ^45 Calcium in Fetal Bone Released into Media (%) after 2 days incubation [2, 4]: 45.7 ± 2.5%; ^45 Calcium in fetal bone Released into media (%) after 5 days incubation [2, 4]: 71.8 ± 3.5%; ^45 Calcium in Fetal Bone Released into Media (%) after 2 days incubation ([2]; Table 3, PTH + 20 μg/ml): 22.5 ± 1.6%; ^45 Calcium in fetal bone Released into media (%) after 5 days incubation ([2]; Table 3, PTH + 20 μg/ml): 29.2 ± 1.8%; ^45 Calcium in Fetal Bone Released into Media (%) after 2 days incubation [2, 5]: 21.5 ± 1.5%; ^45 Calcium in fetal bone Released into media (%) after 5 days incubation [2, 5]: 31.9 ± 2.1%; ^45 Calcium in fetal bone Released into media (%) after 5 days incubation ([2]; Table 3, PTH + 20 μg/ml minocycline + 300 μg/ml Pen.-Strep.): 33.5 ± 1.3%; ^45 Calcium in Fetal Bone Released into Media (%) after 2 days incubation ([2]; Table 3, PTH + 60 μg/ml): 19.4 ± 0.9%; ^45 Calcium in fetal bone Released into media (%) after 5 days incubation ([2]; Table 3, PTH + 60 μg/ml): 24.5 ± 1.1%; ^45 Calcium in Fetal Bone Released into Media (%) after 2 days incubation ([2]; Table 3, PTH + 200 μg/ml): 17.6 ± 0.4%; ^45 Calcium in fetal bone Released into media (%) after 5 days incubation ([2]; Table 3, PTH + 200 μg/ml): 22.3 ± 0.5%; ^45 Calcium in Fetal Bone Released into Media (%) after 2 days incubation ([2]; Table 4, first column, PTH + 0.2 μg/ml): 54.5 ± 4.1%; ^45 Calcium in Fetal Bone Released into Media (%) after 2 days incubation ([2]; Table 4, first column, PTH + 2.0 μg/ml): 56.5 ± 2.6%; ^45 Calcium in Fetal Bone Released into Media (%) after 2 days incubation ([2]; Table 4, first column, PTH + 20 μg/ml): 40.7 ± 0.8%; ^45 Calcium in Fetal Bone Released into Media (%) after 2 days incubation ([2]; Table 4, first column, PTH + 200 μg/ml): 16.4 ± 1.1%; ^45 Calcium in Fetal Bone Released into Media (%) after 2 days incubation ([2]; Table 4, second column, PTH + 0.2 μg/ml): 95.1 ± 1.8%; ^45 Calcium in Fetal Bone Released into Media (%) after 2 days incubation ([2]; Table 4, second column, PTH + 2.0 μg/ml): 93.3 ± 2.6%; ^45 Calcium in Fetal Bone Released into Media (%) after 2 days incubation ([2]; Table 4, second column, PTH + 20 μg/ml): 50.1 ± 0.8%; ^45 Calcium in Fetal Bone Released into Media (%) after 2 days incubation ([2]; Table 4, second column, PTH + 200 μg/ml): 20.4 ± 1.5%; effect on PTH-enhanced bone resorption, in words ([2]; concentrations 0.2-300 μg/ml): inhibit ^45 calcium release in a dose responsive manner
